The target in test [1] is human FXIa protein (hFXIa) (Homo sapiens (Human), UniProt P03951). The test can be described thus: Enzyme activity assay in vitro (FXIa, S-2366 substrate). Format: biochemical. Particulars: absorbance at OD405nm. On the procedure:
II. Enzyme Activity Assay In Vitro
Method: the test compound was dissolved in 10 mM mother liquor with DMSO, and stored at −80° C. until use.

In a further test the test system is human plasma. The test can be described thus: Determination of activated partial thromboplastin time (APTT). It is filed as biochemical. On the procedure:
1. Determination of Activated Partial Thromboplastin Time (APTT)
1. Preparation of human plasma: human venous whole blood was collected and placed in 3.2% sodium citrate anticoagulation tube (human blood: sodium citrate=9:1 (V/V)). The tube was centrifuged at ˜1560 g for 8 min, to obtain human plasma.
2. Preparation of the test sample: the test compound was dissolved in DMSO, and diluted in gradient to obtain 3000, 600, 120, 24, 4.8 μM stock solutions; each stock solution was mixed with the human plasma as prepared under item 1 at a ratio of 1:49 (V/V).
3. Negative control: DMSO solvent without the test compound was diluted in gradient to obtain 3000, 600, 120, 24, 4.8 μM stock solutions; each stock solution was mixed with the human plasma as prepared under item 1 at a ratio of 1:49 (V/V).
4. Test: After mixing the test solution of the above test sample and that of the negative control separately for 3 to 5 minutes, 30 μL of the test solution was added to the machine (MC-2000 coagulometer), and pre-warmed at 37° C. for 2 min; 30 μL of APTT reagent (MDC Hemostasis, Cat: 300025) was added and incubated at 37° C. for 5 min; and then 30 μL CaCl2 was added to initiate the APTT measurement.
According to the measured APTT result, APTT ratio was calculated according to the following formula. APTT ratio=(APTTtest compound/APTTnegative control).
Exponential equation was used to fit the Lg (concentration) to APTT ratio (Origin Pro 8.5.1 SR2), the drug working concentrations at 1.5 times APTT ratio and 2 times APTT ratio were calculated, namely EC150 and EC200.

The mark [2] stands for this setting: drug working concentration at 1.5 times APTT ratio, read-out: EC150.
Where [3] appears, read: drug working concentration at 2 times APTT ratio, read-out: EC200.

Read-outs that look alike come from different tables or passages of the source.

As usually defined, the IC50 is the concentration at which inhibition is half-maximal. A lower IC50 goes with greater potency.

human FXIa protein (hFXIa), sequence (P03951 388-625): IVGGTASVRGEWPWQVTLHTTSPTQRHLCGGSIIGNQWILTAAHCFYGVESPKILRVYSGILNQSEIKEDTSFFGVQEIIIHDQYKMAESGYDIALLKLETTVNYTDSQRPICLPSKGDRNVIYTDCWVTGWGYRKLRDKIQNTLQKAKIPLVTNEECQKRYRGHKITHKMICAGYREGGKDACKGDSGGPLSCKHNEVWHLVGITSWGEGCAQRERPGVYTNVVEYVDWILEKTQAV
human FXIa protein (hFXIa), sequence (P03951 19-387 partner): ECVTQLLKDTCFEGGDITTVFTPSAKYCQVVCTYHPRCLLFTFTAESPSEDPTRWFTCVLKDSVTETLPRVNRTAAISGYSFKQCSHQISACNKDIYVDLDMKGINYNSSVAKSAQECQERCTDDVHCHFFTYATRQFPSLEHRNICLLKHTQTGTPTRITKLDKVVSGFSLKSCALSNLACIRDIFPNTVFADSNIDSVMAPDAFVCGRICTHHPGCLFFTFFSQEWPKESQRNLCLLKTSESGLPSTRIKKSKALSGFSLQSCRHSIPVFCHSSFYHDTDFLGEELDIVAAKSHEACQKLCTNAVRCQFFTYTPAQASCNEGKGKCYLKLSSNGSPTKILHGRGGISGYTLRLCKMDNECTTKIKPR

For `N#Cc1ccc2c(c1)CCN2C(=O)N1C(=O)[C@H](Cc2ccnc(N)c2)[C@H]1C(=O)O` [Example 13], in test [1], half-maximal inhibition (IC50) required 23.2 nM.

`Nc1cc(C[C@H]2C(=O)N(C(=O)N3CCC[C@H](c4ccccc4)C3)[C@@H]2C(=O)O)ccn1` [Example 16]: the IC50 in test [1] turned out to be 1.89 nM. The values for the concentration giving fixed-fold APTT prolongation with human plasma (setting [2]) and in the test with human plasma (setting [3]) were 1.41 µM and 6.99 µM, respectively.

In the case of `CS(=O)(=O)NC(=O)[C@@H]1[C@@H](Cc2ccnc(N)c2)C(=O)N1C(=O)N1CCCCC1c1ccccc1` (stereo partly shown) [Example 18], half-maximal inhibition in test [1] (IC50) was put at 10.7 nM.

`CNC(=O)[C@@H]1[C@@H](Cc2ccnc(N)c2)C(=O)N1C(=O)N1CCCCC1c1ccccc1` (stereo partly shown) [Example 19] came in with an IC50 in test [1] of 5.99 nM.

On to `CN(C)C(=O)[C@@H]1[C@@H](Cc2ccnc(N)c2)C(=O)N1C(=O)N1CCCCC1c1ccccc1` (stereo partly shown) [Example 20], for which the IC50 in test [1] amounted to 10.8 nM.

On to `CNC(=O)[C@@H]1[C@@H](Cc2ccnc(N)c2)C(=O)N1C(=O)N1CCC[C@H](c2ccccc2)C1` [Example 23], for which the midpoint of inhibition in test [1], the IC50, lay at 1.5 nM. The results for the concentration giving fixed-fold APTT prolongation in the test on human plasma (setting [2]) and in the test on human plasma (setting [3]) were 1.48 µM and 4.4 µM, respectively.

With `CN(C)C(=O)[C@@H]1[C@@H](Cc2ccnc(N)c2)C(=O)N1C(=O)N1CCC[C@H](c2ccccc2)C1` [Example 24], the IC50 in test [1] is 3.6 nM.

On to `CS(=O)(=O)NC(=O)[C@@H]1[C@@H](Cc2ccnc(N)c2)C(=O)N1C(=O)N1CCC[C@H](c2ccccc2)C1` [Example 25], for which, in test [1], half-maximal inhibition (IC50) was put at 3.2 nM.

Regarding `Nc1cc(C[C@H]2C(=O)N(C(=O)N3CCCC(c4ccc5c(c4)OC(F)(F)O5)C3)[C@@H]2C(=O)O)ccn1` (stereo partly shown) [Example 26], in test [1], the half-inhibitory concentration (IC50) came to 11.1 nM.

With `Cn1cc(C2CCCN(C(=O)N3C(=O)[C@H](Cc4ccnc(N)c4)[C@H]3C(=O)O)C2)cn1` (stereo partly shown) [Example 28], 23.1 nM corresponded to half-maximal inhibition in test [1] (IC50).

With `CNC(=O)[C@@H]1[C@@H](Cc2ccnc(N)c2)C(=O)N1C(=O)N1CCCC(c2ccc(F)cc2)C1` (stereo partly shown) [Example 30], the IC50 in test [1] came to 2.4 nM.

The compound `NC(=O)[C@@H]1[C@@H](Cc2ccnc(N)c2)C(=O)N1C(=O)N1CCC[C@@H](c2ccccc2)C1` [Example 31] yielded an IC50 in test [1] of 2.8 nM.

Consider `NC(=O)[C@@H]1[C@@H](Cc2ccnc(N)c2)C(=O)N1C(=O)N1CCCC(c2ccc3c(c2)OC(F)(F)O3)C1` (stereo partly shown) [Example 32], for which the IC50 in test [1] stood at 4.1 nM.

`CNC(=O)[C@@H]1[C@@H](Cc2ccnc(N)c2)C(=O)N1C(=O)N1CCCC(c2ccc3c(c2)OC(F)(F)O3)C1` (stereo partly shown) [Example 33] came in with an IC50 in test [1] of 3.5 nM.

In turn, `CNC(=O)[C@@H]1[C@@H](Cc2ccnc(N)c2)C(=O)N1C(=O)N1CCC[C@@H](c2ccccc2)C1` [Example 41] gave an IC50 in test [1] of 4.1 nM. Further, the concentration giving fixed-fold APTT prolongation with human plasma (setting [2]) was 2.18 µM; in the test on human plasma (setting [3]), 8.22 µM.

For `COC(=O)Nc1cccc(C2CCCN(C(=O)N3C(=O)[C@H](Cc4ccnc(N)c4)[C@H]3C(=O)O)C2)c1` (stereo partly shown) [Example 42], the IC50 in test [1] was determined as 9.1 nM.

With `CNC(=O)[C@@H]1[C@@H](Cc2ccnc(N)c2)C(=O)N1C(=O)N1CCCC(C2CCCCCCC2)C1` (stereo partly shown) [Example 45], the IC50 in test [1] is 5.3 nM.

Take `Nc1cc(C[C@H]2C(=O)N(C(=O)N3CCCC(c4cccc5ccccc45)C3)[C@@H]2C(=O)O)ccn1` (stereo partly shown) [Example 46]: in test [1], the concentration for half-maximal inhibition (IC50) was 7.7 nM.

As to `CNC(=O)[C@@H]1[C@@H](Cc2ccnc(N)c2)C(=O)N1C(=O)N1CCCC(c2ccccc2)C1` (stereo partly shown) [Example 51], the IC50 in test [1] is 3.3 nM.

For the origin of these results see US11345679B2, “Quaternary lactam compound and pharmaceutical use thereof” (SHANGHAI MEIYUE BIOTECH DEVELOPMENT CO., LTD., priority 2018, dated 2022).
